Results taken from US7745446B2, “Pyrazolo[1,5-c]pyrimidines” (Bayer Schering Pharma Aktiengesellschaft, priority 2004, dated 2010).

Assays:
GST-ΔPH-Akt1 = biological target: T1, GST-ΔPH-Akt1 (Homo sapiens, UniProt P31749); assay: Biochemical ΔPH Akt1 assay (flashplate, 33P incorporation into histone 2B); conditions: 100 nM ATP, histone 2B substrate; read-out: ΔPHAkt1 inhibition: IC50
T1 construct: named GST-deltaPH-Akt1; 107-480aa; cloned in the pAcGl vector; GST (N); made in house; host or cells: SF9 insect cells (baculovirus vector pAcG1), co-expressed with PDK1
T1 sequence (P31749 107-480, stated change not applied): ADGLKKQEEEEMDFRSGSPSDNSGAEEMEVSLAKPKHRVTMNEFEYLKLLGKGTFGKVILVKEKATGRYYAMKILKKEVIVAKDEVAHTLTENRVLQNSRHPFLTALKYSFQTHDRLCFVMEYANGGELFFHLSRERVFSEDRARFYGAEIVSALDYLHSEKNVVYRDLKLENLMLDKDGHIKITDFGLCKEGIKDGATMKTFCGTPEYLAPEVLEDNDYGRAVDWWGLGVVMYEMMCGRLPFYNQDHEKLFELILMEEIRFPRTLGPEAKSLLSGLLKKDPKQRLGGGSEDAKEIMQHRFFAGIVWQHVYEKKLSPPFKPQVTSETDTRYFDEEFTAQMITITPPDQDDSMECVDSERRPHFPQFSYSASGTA
Excerpt: For the biochemical assay ΔPHAkt1 is used devoid of its PH domain as a GST fusion protein (named GST-deltaPH-Akt1; 107-480aa; cloned in the pAcGl vector (BD Biosciences Pharmingen)), co-expressed with PDK1 in SF9 insect cells. The protein is purified using glutathion-affinity chromatography by standard protocols.
In order to study the inhibition of Akt according to the invention, a flashplate-based assay has been developed.
The Akt1 assay is a biochemical assay using Akt1 devoid of its PH domain and co-expressed with PDK1 in insect cells. The GST-ΔPH-Akt1 assay is run in 96 well plates by incubating 100 ng/well GST-ΔPH-Akt1, 100 ng/well histone 2B (Roche, #223514) as substrate, 10 μl of compound of invention (test compounds were dissolved as 10 mM solutions in dimethylsulfoxide (DMSO) and subsequently diluted) and 100 nM ATP (including ^33P-ATP) in 100 μl of reaction buffer ([…], pH7,5; 3 mM MgCl2; 3 mM MnCl2; 3 μM Na-Orthovanadat; 1 mM DTT; 1 μg/ml PEG8000) for 80 minutes at 30° C. The reactions are terminated by adding 100 μl stopping buffer (2% H3PO4 for 5 minutes) and are washed 3 times by using washing buffer (0.9% NaCl). Relying on the incorporation of ^33P into the protein substrate histone 2B, the detection is based on the adhesion of the phosphorylated protein to the surface of scintillator-coated flash plates (NEN, USA; #SMP-200). This phosphorylation is measured by counting the plate for 60 sec. using a plate reader (Wallac Microbeta; Perkin Elmer, USA).

MCF7 cells = assay: Cellular proliferation/cytotoxicity assay (Alamar Blue), MCF7; conditions: Homo sapiens, MCF7, 48 h, read-out: Anti-proliferative/cytotoxic activity: IC50 MCF7
Protocol: (§1) The anti-proliferative activity of the compounds as described herein, is evaluated using MCF7 and MDA-MB-468 (ATCC HTB-22 and HTB-132) cell lines and the Alamar Blue (Resazurin) cell viability assay (O'Brien et al. Eur J Biochem 267, 5421-5426, 2000). Resazurin is reduced to the fluorescent resorufin by cellular dehydrogenase activity, correlating with viable, proliferating cells. Test compounds are dissolved as 10 mM solutions in DMSO and subsequently diluted. MCF7 or MDA-MB-434 cells were seeded into 96 well flat bottom plates at a density of 10000 cells/well (MCF7) or 5000 cells/well (MDA-MB-468) in a volume of 200 μl/well. 24 hours after seeding, 1 μl each of the compound dilutions are added into each well of the 96 well plates. Each compound dilution is tested as at least as duplicates. Wells containing untreated control cells were filled with 200 μl DMEM containing 0.5% v:v DMSO. The cells are then incubated with the substances for 48 hours at 37° C. in a humidified atmosphere containing 5% carbon dioxide. To determine cell viability, 20 μl of a Resazurin solution (Sigma; 90 mg/l) are added. After 4 hours incubation at 37° C. the fluorescence is measured at an extinction of 544 nm and an emission of 590 nm (Wallac Victor2; Perkin Elmer, USA). For the calculation of the cell viability the emission value from untreated cells is set as 100% viability and the emission rates of treated cells are set in relation to the values of untreated cells. Viabilities are expressed as % values. The corresponding IC50 values of the compounds for cytotoxic activity are determined from the concentration-effect curves by means of non-linear regression. The analysis of the data is performed using a biostatistical program (GraphPad Prism, USA).

MDA-MB-468 cells = assay: Cellular proliferation/cytotoxicity assay (Alamar Blue), MDA-MB-468; conditions: Homo sapiens, MDA-MB-468, 48 h, read-out: Anti-proliferative/cytotoxic activity: IC50 MDA468
Protocol: as §1

Structure (SMILES) | IC50 (GST-ΔPH-Akt1) [nM] | IC50 (MCF7 cells) [nM] | IC50 (MDA-MB-468 cells) [nM]
CC(=O)Nc1cccc(-c2ccc(-c3cc4ccnn4c(Nc4ccc(NC(=O)c5ccc(CCN)cc5)cc4)n3)cc2)c1 [Example 82, N-{4-[5-(3′-Acetylamino-biphenyl-4-yl)-pyrazolo[1,5-c]pyrimidin-7-ylamino]-phenyl}-4-(2-amino-ethyl)-benzamide] | ≤ 1750 | – | –
NCCc1ccc(C(=O)Nc2cccc(Nc3nc(-c4cccc5c4oc4ccccc45)cc4ccnn34)c2)cc1 [Example 21, 4-(2-Amino-ethyl)-N-[3-(5-dibenzofuran-4-yl-pyrazolo[1,5-c]pyrimidin-7-ylamino)-phenyl]-benzamide] | ≤ 1750 | – | –
COc1cccc(-c2ccc(-c3cc4c(Br)cnn4c(Nc4ccc(NC(=O)c5ccc(CCN)cc5)cc4)n3)cc2)c1 [Example 86, 4-(2-Amino-ethyl)-N-{4-[3-bromo-5-(3′-methoxy-biphenyl-4-yl)-pyrazolo[1,5-]pyrimidin-7-ylamino]-phenyl}-benzamide] | ≤ 1750 | – | –
O=C(Nc1ccc(Nc2nc(-c3ccc(-c4cccc([N+](=O)[O-])c4)cc3)cc3ccnn23)cc1)c1ccc2c(c1)CCNC2 [Example 80, 1,2,3,4-Tetrahydro-isoquinoline-6-carboxylic acid {4-[5-(3′-nitro-biphenyl-4-yl)-pyrazolo[1,5-c]pyrimidin-7-ylamino]-phenyl}-amide] | ≤ 1750 | ≤ 16900 | ≤ 13600
CC(=O)Nc1cccc(-c2ccc(-c3cc4ccnn4c(Nc4ccc(NC(=O)c5ccc6c(c5)CCNC6)cc4)n3)cc2)c1 [Example 83, 1,2,3,4-Tetrahydro-isoquinoline-6-carboxylic acid {4-[5-(3′-acetylamino-biphenyl-4-yl)-pyrazolo[1,5-c]pyrimidin-7-ylamino]-phenyl}-amide] | – | ≤ 16900 | ≤ 13600
CC(=O)Nc1cccc(-c2ccc(-c3cc4c(Br)cnn4c(Nc4ccc(NC(=O)c5ccc(CN)cc5)cc4)n3)cc2)c1 [Example 90, N-{4-[5-(3′-Acetylamino-biphenyl-4-yl)-3-bromo-pyrazolo[1,5-c]pyrimidin-7-ylamino]-phenyl}-4-aminomethyl-benzamide] | ≤ 1750 | – | –
CN1CCN(Cc2ccc(C(=O)Nc3ccc(Nc4nc(-c5cccc(Br)c5)cc5ccnn45)cc3)cc2)CC1 [Example 2, N-{4-[5-(3-Bromo-phenyl)-pyrazolo[1,5-c]pyrimidin-7-ylamino]-phenyl}-4-(4-methyl-piperazin-1-ylmethyl)-benzamide] | – | ≤ 16900 | ≤ 13600
NCc1ccc(C(=O)Nc2ccc(Nc3nc(-c4ccc(-c5ccc(F)cc5)cc4)cc4c(Br)cnn34)cc2)cc1 [Example 89, 4-Aminomethyl-N-{4-[3-bromo-5-(4′-fluoro-biphenyl-4-yl)-pyrazolo[1,5-c]pyrimidin-7-ylamino]-phenyl}-benzamide] | ≤ 1750 | – | –
NCCc1ccc(C(=O)Nc2ccc(Nc3nc(-c4ccc(Br)cc4)cc4ccnn34)cc2)cc1 [Example 84, 4-(2-Amino-ethyl)-N-{4-[5-(4-bromo-phenyl)-pyrazolo[1,5-c]pyrimidin-7-ylamino]-phenyl}-benzamide] | ≤ 1750 | – | –
NCc1ccc(C(=O)Nc2ccc(Nc3nc(-c4cccc(-c5ccccc5)c4)cc4ccnn34)cc2)cc1 [Example 71, 4-Aminomethyl-N-[4-(5-biphenyl-3-yl-pyrazolo[1,5-c]pyrimidin-7-ylamino)-phenyl]-benzamide] | ≤ 2450 | – | –
NCc1cccc(C(=O)Nc2cccc(Nc3nc(-c4cccc5c4oc4ccccc45)cc4ccnn34)c2)c1 [Example 18, 3-Aminomethyl-N-[3-(5-dibenzofuran-4-yl-pyrazolo[1,5-c]pyrimidin-7-ylamino)-phenyl]-benzamide] | ≤ 1750 | ≤ 16900 | ≤ 13600
NCCc1ccc(C(=O)Nc2ccc(Nc3nc(-c4ccc(-c5ccc(F)cc5)cc4)cc4ccnn34)cc2)cc1 [Example 75, 4-(2-Amino-ethyl)-N-{4-[5-(4′-fluoro-biphenyl-4-yl)-pyrazolo[1,5-c]pyrimidin-7-ylamino]-phenyl}-benzamide] | ≤ 1750 | – | –
NCc1ccc(C(=O)Nc2ccc(Nc3nc(-c4cccc5c4oc4ccccc45)cc4ccnn34)cc2)cc1 [Example 19, 4-Aminomethyl-N-[4-(5-dibenzofuran-4-yl-pyrazolo[1,5-c]pyrimidin-7-ylamino)-phenyl]-benzamide] | ≤ 1750 | ≤ 16900 | ≤ 13600
NCc1ccc(C(=O)Nc2ccc(Nc3nc(-c4cccc5c4oc4ccccc45)cc4c(Br)cnn34)cc2)cc1 [Example 91, 4-Aminomethyl-N-[4-(3-bromo-5-dibenzofuran-4-yl-pyrazolo[1,5-c]pyrimidin-7-ylamino) -phenyl]-benzamide] | ≤ 1750 | – | –
NCCc1ccc(C(=O)Nc2ccc(Nc3nc(-c4ccc(-c5cccc([N+](=O)[O-])c5)cc4)cc4ccnn34)cc2)cc1 [Example 81, 4-(2-Amino-ethyl)-N-{4-[5-(3′-nitro-biphenyl-4yl)-pyrazolo[1,5-c]pyrimidin-7-ylamino]-phenyl}-benzamide] | ≤ 1750 | ≤ 16900 | ≤ 13600
NCc1ccc(C(=O)Nc2ccc(Nc3nc(-c4ccc5cc(O)ccc5c4)cc4ccnn34)cc2)cc1 [Example 44, 4-Aminomethyl-N-{4-[5-(6-hydroxy-naphthalen-2-yl)-pyrazolo[1,5-c]pyrimidin-7-ylamino]-phenyl}-benzamide] | ≤ 1750 | – | –
COc1ccc(-c2cccc(-c3cc4ccnn4c(Nc4ccc(NC(=O)c5ccc(CN)cc5)cc4)n3)c2)cc1 [Example 72, 4-Aminomethyl-N-{4-[5-(4′-methoxy-biphenyl-3-yl)-pyrazolo[1,5-c]pyrimidin-7-ylamino]-phenyl}-benzamide] | ≤ 1750 | – | –
COc1cccc(-c2cccc(-c3cc4ccnn4c(Nc4ccc(NC(=O)c5ccc(CN)cc5)cc4)n3)c2)c1 [Example 74, 4-Aminomethyl-N-{4-[5-(3′-methoxy-biphenyl-3-yl)-pyrazolo[1,5-c]pyrimidin-7-ylamino]-phenyl}-benzamide] | ≤ 2450 | – | –
O=C(Nc1ccc(Nc2nc(-c3ccc(-c4ccc(F)cc4)cc3)cc3ccnn23)cc1)c1ccc2c(c1)CCNC2 [Example 76, 1,2,3,4-Tetrahydro-isoquinoline-6-carboxylic acid {4-[5-(4′-fluoro-biphenyl-4-yl)-pyrazolo[1,5-c]pyrimidin-7-ylamino]-phenyl}amide] | ≤ 1750 | – | –
O=C(Cc1cccc(Cl)c1)Nc1ccc(Nc2nc(-c3cccc4c3oc3ccccc34)cc3ccnn23)cc1 [Example 12, 2-(3-Chloro-phenyl)-N-[4-(5-dibenzofuran-4-yl-pyrazolo[1,5-c]pyrimidin-7-ylamino) -phenyl]-acetamide] | ≤ 2450 | – | –
CC(=O)Nc1cccc(-c2cccc(-c3cc4ccnn4c(Nc4ccc(NC(=O)c5ccc(CN)cc5)cc4)n3)c2)c1 [Example 73, N-{4-[5-(3′-Acetylamino-biphenyl-3-yl)-pyrazolo[1,5-c]pyrimidin-7-ylamino]-phenyl}-4-aminomethyl-benzamide] | ≤ 2450 | – | –
Nc1ccc(C(=O)Nc2ccc(Nc3nc(-c4cccc5c4oc4ccccc45)cc4ccnn34)cc2)cc1 [Example 6, 4-Amino-N-[4-(5-dibenzofuran-4-yl-pyrazolo[1,5-c]pyrimidin-7-ylamino)-phenyl]-benzamide] | ≤ 1750 | – | –
COc1cccc(-c2ccc(-c3cc4ccnn4c(Nc4ccc(NC(=O)c5ccc6c(c5)CCNC6)cc4)n3)cc2)c1 [Example 77, 1,2,3,4-Tetrahydro-isoquinoline-6-carboxylic acid {4-[5-(3′-methoxy-biphenyl-4-yl)-pyrazolo[1,5-c]pyrimidin-7-ylamino]-phenyl}amide] | ≤ 1750 | – | –
NCCCC(=O)Nc1cccc(Nc2nc(-c3cccc4c3oc3ccccc34)cc3ccnn23)c1 [Example 22, 4-Amino-N-[3-(5-dibenzofuran-4-yl-pyrazolo[1,5-c]pyrimidin-7-ylamino)-phenyl]-butyramide] | ≤ 1750 | – | –
COc1ccc(-c2ccc(-c3cc4c(Br)cnn4c(Nc4ccc(NC(=O)c5ccc(CN)cc5)cc4)n3)cc2)cc1 [Example 88, 4-Aminomethyl-N-{4-[3-bromo-5-(4′-methoxy-biphenyl-4-yl)-pyrazolo[1,5-c]pyrimidin-7-ylamino]-phenyl}-benzamide] | ≤ 1750 | – | –
CC(C)(C)c1ccc(C(=O)Nc2ccc(Nc3nc(-c4cccc5c4oc4ccccc45)cc4ccnn34)cc2)cc1 [Example 10, 4-tert-Butyl-N-[4-(5-dibenzofuran-4-yl-pyrazolo[1,5-c]pyrimidin-7-ylamino)-phenyl]-benzamide] | ≤ 2450 | – | –
